Assay results reported in US7271260B2, “3,4-dihydroquinazoline derivatives as T-type calcium channel blockers and method of preparing the same” (Korea Institute of Science and Technology, priority 2004, dated 2007).

Columns and labels:
Na+ channel = experiment: Patch clamp of sodium current in MPG (major pelvic ganglion) neurons; assay type: cell-based, rat; conditions: MPG neuron, 10 μM; for selectivity for the calcium channel versus the sodium channel: from Table 3; for Inhibitory effect, Na+ channel: n.i. = no inhibitory effect
Description: In order to examine the selectivity of the compound of the present invention for other ion channels, the inhibitory effects of KYS05001, KYS05041 and KYS05042 on […] and high voltage-activated Ca2+ channel (HVA) were measured according to a conventional method (Lee, J.-H. et al., J. Neurophysiol. 2002, 87, 2844-2850) using MPG (major pelvic ganglion).
Male Sprague-Dawley rats having about 250 g of an average body weight were employed as experimental animals. After the rats were anesthetized with sodium pentobarbital (50 mg/kg, i.p.), the abdomen was cut open immediately. MPG located on the left side of the prostate was extracted and then transferred in cold (4° C.) Hank's balanced salt solution (HBSS, GibcoBRL). The connective tissue encompassing the ganglion was stripped therefrom and a small gap was made carefully on the naked ganglion with a sharp knife. Then, the ganglion was cultured in 10 ml of modified Earle's balanced salt solution (EBSS, pH 7.4, GibcoBRL) supplemented with 0.7 mg/ml of collagenase (type D), 0.3 mg/ml of trypsin and 0.1 mg/ml of DNAse type I at 35° C. for 1 hour (Zhu et al., J. Physiol. Lond. 1995, 489, 363-375). At this time, 3.6 g/l of glucose and 10 mM HEPES were added to EBSS. After the cultivation was completed, the culture flask was shaken to separate call clusters into a single nerve cell and subjected to centrifugation at 1000 rpm with a clinical centrifuge (International Equipment Company, Mass., U.S.A.). The separated single nerve cells were re-suspended in MEM (GibcoBRL) supplemented with 10% fetal bovine serum, 1% glutamine and 1% penicillin/streptomycin. They were then spread on a polystyrene culture dish (35 mm) coated with poly-L-lysine. The culture dish was incubated at 37° C. humidified incubator (95% air-5% CO2) and the cells were used in the following experiment within 24 hours after the separation.
The voltage-dependent calcium and sodium current were recorded according to a typical patch clamping method using a patch clamp amplifier (Axopatch 1D, Axon Instruments, Foster City, Calif., U.S.A.) at a whole-cell ruptured configuration (Hamill et al., Pflügers Arch. 1981, 391, 85-100). An electrode was made from a borosilicate glass capillary tube (outer diameter; 1.65 mm, inner diameter; 1.2 mm, Corning 7052, Garner Glass Co., Claremont, Calif., U.S.A.) using P-97 Flaming-Brown micropipette puller (Sutter Instrument Co., Novato, Calif., U.S.A.) and forged smoothly by heating with a microforge. The electrode showing 1˜3 MΩ of resistance when filled with a solution was used for the following experiment. The culture dish containing the nerve cells was placed on an inverted microscope and the cell exterior solution was flowed into the dish at a flow rate of about 1˜2 ml/min. The membrane capacitance and series resistance were corrected by 80% or more with an amplifier. The voltage generation and record of calcium current were carried out using S4 software (provided by Dr. Stephen R. Ikeda, National Institute on Alcohol Abuse and Alcoholism, NIH, USA) equipped in Macintosh computer, which was connected to an analogue/digital converter (Digidata 1200, Axon Instruments Co.). The calcium current, which passed through a low band pass filter at 2˜5 kHz, was stored in Macintosh computer and analyzed with IGOR PRO (Wave-Metrics, Lake Oswego, Oreg., U.S.A.). All the experiments were conducted at a room temperature ranging from 20 to 22° C.
The electrode for measuring the calcium current was filled with the solution comprising 120 mM N-methyl-D-glucamine (NMG) methanesulfonate (MS), 20 mM tetraethylammonium (TEA)-MS, 20 mM HCl, 11 mM EGTA, 10 mM HEPES, 1 mM CaCl2, 4 mM MgATP, 0.3 mM Na2GTP and 14 mM tris-phosphocreatine (pH 7.2, 290 mOsm). The extracellular infusion fluid was composed of 140 mM MS, 145 mM TEA-OH, 10 mM HEPES, 15 mM glucose, 10 mM CaCl2 and 0.0003 mM tetrodotoxin (TTX, pH 7.4, 320 mOsm). […]

[1] = target: T1, T-type calcium channel α1H (Cav3.2) (Homo sapiens, UniProt O95180); experiment: Two-electrode voltage clamp on Xenopus unfertilized oocytes expressing α1H T-type calcium channel; assay type: cell-based; conditions: test potential -20 mV from -90 mV, read-out: inhibitory effect (blocking percentage), Xenopus oocyte (α1H) at 100 μM
T1 construct: expressed in transfected cells; host or cells: Xenopus laevis unfertilized oocytes injected with cRNA (pGEM-HEA linearised with AflII, T7 transcription)
T1 sequence (O95180 whole entry): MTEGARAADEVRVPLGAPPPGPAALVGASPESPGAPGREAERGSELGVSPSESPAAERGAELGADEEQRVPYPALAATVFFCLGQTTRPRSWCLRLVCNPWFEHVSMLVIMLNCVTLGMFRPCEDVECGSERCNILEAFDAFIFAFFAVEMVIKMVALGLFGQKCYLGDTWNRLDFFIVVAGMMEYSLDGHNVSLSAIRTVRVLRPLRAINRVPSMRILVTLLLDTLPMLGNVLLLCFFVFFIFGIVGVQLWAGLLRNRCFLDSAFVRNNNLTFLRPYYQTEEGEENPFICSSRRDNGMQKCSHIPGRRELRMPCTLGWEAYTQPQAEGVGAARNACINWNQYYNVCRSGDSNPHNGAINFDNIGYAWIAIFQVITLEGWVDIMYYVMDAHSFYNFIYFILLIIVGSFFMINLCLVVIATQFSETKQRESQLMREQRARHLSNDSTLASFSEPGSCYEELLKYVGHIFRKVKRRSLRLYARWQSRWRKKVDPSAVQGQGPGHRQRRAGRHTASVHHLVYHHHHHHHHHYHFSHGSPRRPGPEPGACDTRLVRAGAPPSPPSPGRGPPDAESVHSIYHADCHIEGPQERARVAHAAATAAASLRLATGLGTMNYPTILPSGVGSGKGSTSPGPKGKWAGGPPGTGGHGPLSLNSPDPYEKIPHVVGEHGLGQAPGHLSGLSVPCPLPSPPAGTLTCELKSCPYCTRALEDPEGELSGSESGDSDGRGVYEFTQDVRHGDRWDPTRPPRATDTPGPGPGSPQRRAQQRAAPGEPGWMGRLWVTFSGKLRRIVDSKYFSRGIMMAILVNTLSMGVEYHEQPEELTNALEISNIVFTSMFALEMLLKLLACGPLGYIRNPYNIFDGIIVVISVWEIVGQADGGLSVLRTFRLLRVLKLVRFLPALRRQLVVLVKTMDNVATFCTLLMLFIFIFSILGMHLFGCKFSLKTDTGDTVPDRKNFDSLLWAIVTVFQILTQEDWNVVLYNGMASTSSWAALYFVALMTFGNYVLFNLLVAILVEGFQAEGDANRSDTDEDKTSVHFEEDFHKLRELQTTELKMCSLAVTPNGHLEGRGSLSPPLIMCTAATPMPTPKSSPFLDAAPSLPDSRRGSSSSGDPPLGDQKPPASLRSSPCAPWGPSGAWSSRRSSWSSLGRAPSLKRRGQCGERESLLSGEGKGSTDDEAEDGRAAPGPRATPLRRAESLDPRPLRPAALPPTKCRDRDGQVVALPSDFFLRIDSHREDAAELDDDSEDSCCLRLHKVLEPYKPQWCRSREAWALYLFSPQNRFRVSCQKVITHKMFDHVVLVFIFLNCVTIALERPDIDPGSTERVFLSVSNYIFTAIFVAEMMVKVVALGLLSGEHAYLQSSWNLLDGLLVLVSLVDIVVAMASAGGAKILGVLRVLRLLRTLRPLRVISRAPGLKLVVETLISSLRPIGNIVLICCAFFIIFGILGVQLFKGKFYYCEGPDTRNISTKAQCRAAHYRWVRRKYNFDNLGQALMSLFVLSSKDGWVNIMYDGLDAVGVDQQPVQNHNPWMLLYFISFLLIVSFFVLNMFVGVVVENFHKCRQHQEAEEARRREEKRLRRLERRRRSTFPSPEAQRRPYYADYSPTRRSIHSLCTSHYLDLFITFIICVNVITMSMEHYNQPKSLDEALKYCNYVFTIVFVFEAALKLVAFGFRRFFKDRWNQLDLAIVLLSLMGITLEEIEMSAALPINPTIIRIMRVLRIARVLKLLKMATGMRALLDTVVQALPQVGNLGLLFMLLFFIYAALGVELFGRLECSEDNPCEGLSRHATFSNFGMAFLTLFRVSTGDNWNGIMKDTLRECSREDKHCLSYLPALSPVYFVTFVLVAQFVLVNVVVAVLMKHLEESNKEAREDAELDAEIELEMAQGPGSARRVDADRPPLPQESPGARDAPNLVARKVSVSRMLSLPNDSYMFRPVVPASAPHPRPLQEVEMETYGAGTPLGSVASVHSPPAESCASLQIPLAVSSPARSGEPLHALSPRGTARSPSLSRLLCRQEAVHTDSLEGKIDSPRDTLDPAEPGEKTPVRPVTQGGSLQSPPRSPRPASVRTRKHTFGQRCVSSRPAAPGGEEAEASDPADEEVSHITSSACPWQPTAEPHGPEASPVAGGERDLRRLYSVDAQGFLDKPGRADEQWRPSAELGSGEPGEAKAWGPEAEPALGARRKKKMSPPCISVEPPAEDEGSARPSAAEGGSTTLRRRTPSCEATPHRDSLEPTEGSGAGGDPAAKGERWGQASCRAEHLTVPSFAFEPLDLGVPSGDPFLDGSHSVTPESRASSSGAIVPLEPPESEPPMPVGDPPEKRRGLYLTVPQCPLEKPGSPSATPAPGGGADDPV
Description: In order to express a gene encoding T-type calcium channel α1H (Cav3.2) (Cribbs, L. L. et al., Circ. Res., 1998, 83, 103-109) in unfertilized Xenopus oocytes, pGEM-HEA was treated with restriction enzyme AflII to obtain a DNA fragment containing 5′-terminal region having the T-type calcium channel cDNA (AF051946). cRNA having a corresponding sequence to that of the fragment was synthesized using T7 RNA polymerase according to the manufacturer's instructions (mMESSAGE mMACHINE kit, Ambion, Austin, U.S.A.). The synthesized cRNA was quantified by measuring the O.D. value with a spectrophotometer. At this time, unfertilized oocytes were prepared from female Xenopus laevis (Xenopus I, U.S.A.) according to the following method. After the frog's abdomen was incised by about 1 cm, three to four lobes were detached therefrom with scissors and separated into small pieces to which several oocytes were attached. The small pieces were hydrolyzed in OR solution (82.5 mM NaCl, 2.5 mM KCl, 1 mM MgCl2, 5 mM HEPES, pH 7.6) and supplemented with collagenase type IA (Sigma, U.S.A.) to remove defolliculation. After selecting healthy oocytes with a dissecting microscope, they were soaked in SOS solution (100 mM NaCl, 2 mM KCl, 1.8 mM CaCl2, 1 mM MgCl2, 5 mM HEPES, 2.5 mM pyruvate, […] gentamicin, pH 7.6) for 3 to 4 hours to revitalize them. 2 to 5 ng of cRNA was injected into each oocyte using Nano-injector. The oocytes were subjected to a test in order to examine the electrical properties of the channel expressed therefrom 4 to 5 days after the injection while being maintained at 18° C.
The current of the calcium channel expressed from the Xenopus unfertilized oocytes was measured according to a two-electrode voltage clamping method. The current was measured in 10 mM Ba^2+ solution (10 mM Ba(OH)2, 90 mM NaOH, 1 mM KCl, 0.1 mM EDTA, 5 mM HEPES, pH was adjusted to 7.4 with methanesulfonic acid). At this time, the voltage clamp and current measurement were regulated with an amplifier for unfertilized oocytes (Model OC-725C, Warner Instrument Corp., U.S.A.), and analog signals were converted into digital signals using Digidata 2000A (Analog-Digital converter, Axon Instrument). The acquisition, storage and analysis of all data were recorded in Pentium IV computer via pCLAMP8. The data were mainly collected at 5 KHz and filtered at 1 KHz (Model 902 filter; Frequency devices located at Harverhill, Mass., U.S.A.). The T-type current was generated by imposing test electric potential of −20 mV every 15 seconds on the unfertilized oocytes, the potential of which was fixed at −90 mV. A blocking percentage was calculated by comparing the […] before and after the drug treatment.

O=C(CC1c2ccccc2N=C(N2CCCCC2)N1c1ccccc1)NCc1ccccc1 (stereo not drawn) [KYS05001] was tested, and the “selectivity for the calcium channel versus the sodium channel” value (Na+ channel) was “higher selectivity for the calcium channel than the sodium channel”, the “Inhibitory effect, Na+ channel” value (Na+ channel) was “n.i.^b” and the inhibition at 100 µM [1] was 77%.
With O=C(CC1c2ccccc2N=C(N2CCCCC2)N1c1ccccc1)NCc1ccc(NS(=O)(=O)c2ccc(F)cc2)cc1 (stereo not drawn) [KYS05042, 4-{N-[4-(4-fluorobenzenesulfonylamido)benzyl]acetamido}-3-phenyl-2-(piperidine-1-yl)-3,4-dihydroquinazoline] the “selectivity for the calcium channel versus the sodium channel” value (Na+ channel) was “higher selectivity for the calcium channel than the sodium channel”, the “Inhibitory effect, Na+ channel” value (Na+ channel) was “n.i.^b” and the inhibition at 100 µM [1] was 80.5%.
In the case of Cc1ccc(S(=O)(=O)Nc2ccc(CNC(=O)CC3c4ccccc4N=C(N4CCCCC4)N3c3ccccc3)cc2)cc1 (stereo not drawn) [KYS05041, 4-{N-[4-(4-methylbenzenesulfonylamido)benzyl]acetamido}-3-phenyl-2-(piperidine-1-yl)-3,4-dihydroquinazoline], the “selectivity for the calcium channel versus the sodium channel” value (Na+ channel) is reported as “higher selectivity for the calcium channel than the sodium channel”, the “Inhibitory effect, Na+ channel” value (Na+ channel) is reported as “n.i.^b” and the inhibition at 100 µM [1] is reported as 84.7%.
